From patent publication US20040242579A1, “Triazine derivatives and their use as sunscreens” (priority 2001, published 2004)

Assay: UV absorption (λmax, molar extinction ε, extinction value E 1%, 1 cm) of the triazine UV filters
Format: physicochemical
[1] = at λmax 320 nm, solvent not stated
[2] = second band at 224 nm, solvent not stated

SMILES	E (1%, 1 cm) (at λmax, in ethanol)	ε (at λmax, in ethanol) [L/mol/cm]	λmax (in ethanol) [nm]	E (1%, 1 cm) (at λmax, in dioxane)	ε (at λmax, in dioxane)	λmax (in dioxane) [nm]	also measured
CC1(C)CC(=O)C(=CNc2nc(NC=C3C(=O)CC(C)(C)CC3=O)nc(-c3ccccc3)n2)C(=O)C1 [Example 1]							E (=extinction value) (1%, 1 cm) [1]: 1045; ε [1]: 51000 L/mol/cm; λmax (main band, solvent not stated): 320 nm; E (1%, 1 cm) [2]: 732; ε [2]: 35700 L/mol/cm; γmax (second band, solvent not stated): 224 nm
CC1(C)OC(=O)C(=CNc2nc(NC=C3C(=O)OC(C)(C)OC3=O)nc(-c3ccccc3)n2)C(=O)O1 [Example 3]				1374	68000 L/mol/cm	332	
CCOC(=O)/C(=C\Nc1nc(N/C=C(\C(C)=O)C(=O)OCC)nc(N/C=C(\C(C)=O)C(=O)OCC)n1)C(C)=O [Example 5]				1350		325	
CC1(C)OC(=O)C(=CNc2nc(NC=C3C(=O)OC(C)(C)OC3=O)nc(NC=C3C(=O)OC(C)(C)OC3=O)n2)C(=O)O1 [Example 6]				1053	61 956	326	

Further lines, with some results ahead:

E (1%, 1 cm) (at λmax, in ethanol)	ε (at λmax, in ethanol) [L/mol/cm]	λmax (in ethanol) [nm]	E (1%, 1 cm) (at λmax, in dioxane)	ε (at λmax, in dioxane)	λmax (in dioxane) [nm]	SMILES	also measured
1053	42900	322				CC(=O)C(=CNc1nc(NC=C(C(C)=O)C(C)=O)nc(-c2ccccc2)n1)C(C)=O [Example 2]	
983	46000	319				CCOC(=O)/C(=C\Nc1nc(N/C=C(\C(C)=O)C(=O)OCC)nc(-c2ccccc2)n1)C(C)=O [Example 4]	
